Results reported in patent publication US7858635B2 (priority 2005, dated 2010).
Like-named read-outs stand apart in the source and are kept apart here.

Assays:
M1 muscarinic receptor = target: T1, M1 muscarinic receptor (Homo sapiens, UniProt P11229); test: Functional mobilization of intracellular calcium (FLIPR, Fluo-3), M1-CHO cells; type: cell-based; conditions: for Emax: read-out: M1 Efficacy
T1 construct: expressed in transfected cells; host or cells: CHO cells (M1-CHO, under zeocin and G418 selection)
T1 sequence (P11229 1-460): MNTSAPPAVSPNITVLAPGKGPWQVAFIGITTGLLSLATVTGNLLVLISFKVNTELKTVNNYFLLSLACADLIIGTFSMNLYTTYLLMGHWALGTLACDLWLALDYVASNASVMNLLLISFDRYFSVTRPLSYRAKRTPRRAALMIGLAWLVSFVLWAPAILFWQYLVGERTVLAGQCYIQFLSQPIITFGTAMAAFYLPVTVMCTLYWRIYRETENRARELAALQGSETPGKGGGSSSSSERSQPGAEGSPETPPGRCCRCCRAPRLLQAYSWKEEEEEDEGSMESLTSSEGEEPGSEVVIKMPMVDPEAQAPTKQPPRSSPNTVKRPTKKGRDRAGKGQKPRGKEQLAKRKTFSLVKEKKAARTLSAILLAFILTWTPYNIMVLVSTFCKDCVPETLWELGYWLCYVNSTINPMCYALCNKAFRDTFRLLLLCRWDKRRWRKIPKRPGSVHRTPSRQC
Outline: (§1)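 Intracellular calcium was tracked by fluorescence (488/540 nm) over 60 sec after compound addition to dye-loaded CHO cells expressing the receptor. Inhibitory activity used a 15 min pre-incubation before carbachol at the subtype EC80.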

M4 muscarinic receptor = target: T2, M4 muscarinic receptor (Homo sapiens, UniProt P08173); test: Functional mobilization of intracellular calcium (FLIPR, Fluo-3), M4-CHO cells; type: cell-based; conditions: for Emax: read-out: M4 Efficacy
T2 construct: expressed in transfected cells; host or cells: CHO cells (M4-CHO, under puromycin, zeocin and blasticidin selection)
T2 sequence (P08173 1-479): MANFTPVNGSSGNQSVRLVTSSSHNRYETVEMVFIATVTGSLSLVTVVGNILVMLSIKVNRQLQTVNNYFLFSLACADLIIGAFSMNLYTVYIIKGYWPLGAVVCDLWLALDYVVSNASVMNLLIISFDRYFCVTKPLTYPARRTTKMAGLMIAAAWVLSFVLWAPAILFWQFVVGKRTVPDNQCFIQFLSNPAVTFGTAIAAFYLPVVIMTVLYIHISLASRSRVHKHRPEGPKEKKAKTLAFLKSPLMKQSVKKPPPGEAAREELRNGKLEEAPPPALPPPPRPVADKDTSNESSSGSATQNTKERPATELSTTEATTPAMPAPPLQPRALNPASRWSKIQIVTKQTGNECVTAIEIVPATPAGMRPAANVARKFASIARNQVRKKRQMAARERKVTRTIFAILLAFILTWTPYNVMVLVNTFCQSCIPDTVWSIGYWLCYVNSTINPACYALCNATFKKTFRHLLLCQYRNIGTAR
Outline: as §1

[1] = compound nos. 1-454, 100% efficacy is the maximum response obtained with the Carbachol control
[2] = compound nos. 1-454, M1-CHO cells, calcium mobilization
[3] = compound nos. 1-454, M4-CHO cells, calcium mobilization
[4] = compound nos. 455-509, 100% efficacy is the maximum response obtained with the Carbachol control

| SMILES | Emax (M1 muscarinic receptor; [1]) [%] | M1 Activity (M1 muscarinic receptor; [2]) | Emax (M4 muscarinic receptor; [1]) [%] | M4 Activity (M4 muscarinic receptor; [3]) | also measured |
| --- | --- | --- | --- | --- | --- |
| CCOC(=O)N1CCC(CN2CCC3(CC2)CN(C(C)=O)c2ccc(OC(F)(F)F)cc23)CC1 [compound 21] | < 65 | ++ (activity was measured to be between 0.7 μM and 3.0 μM) | < 55 | + (activity was measured to be greater than or equal to 4.0 μM) |  |
| Clc1ccc2c(c1)C1(CCN(CC3CCOCC3)CC1)CO2 [compound 415] | < 65 |  | < 55 |  | M1 Activity (M1 muscarinic receptor; compound nos. 1-454): + (activity was measured to be greater than or equal to 3.0 μM); M4 Activity (M4 muscarinic receptor; compound nos. 1-454): + (activity was measured to be greater than or equal to 4.0 μM) |
| Fc1ccc2c(c1)C1(CCN(C3CCCCC3)CC1)CO2 [compound 152] | 65 to 85 | ++ (activity was measured to be between 0.7 μM and 3.0 μM) | > 70 | + (activity was measured to be greater than or equal to 4.0 μM) |  |
| CC(=O)N1CC2(CCN(C3CCCN(C(=O)OCCF)CC3)CC2)c2cc(F)ccc21 (stereo not drawn) [compound 168] |  | ++ (activity was measured to be between 0.7 μM and 3.0 μM) | > 70 | ++ (activity was measured to be between 0.1 μM and 4.0 μM) |  |
| CCCOC(=O)N1CCC(CN2CCC3(CC2)C[C@H](NC(C)=O)c2ccccc23)CC1 [compound 36] | 65 to 85 | +++ (activity was measured to be less than or equal to 0.7 μM) | > 70 | ++ (activity was measured to be between 0.1 μM and 4.0 μM) |  |
| CC(C)OC(=O)N1CCC(N2CCC3(CC2)CN(C(=O)N(C)C)c2ccc(F)cc23)CC1 [compound 54] | > 85 | +++ (activity was measured to be less than or equal to 0.7 μM) | 55 to 70 | ++ (activity was measured to be between 0.1 μM and 4.0 μM) |  |
| CCOC(=O)N1C2CCC1CC(N1CCC3(CC1)C[C@H](NC(C)=O)c1ccccc13)C2 (stereo partly drawn) [compound 359] | < 65 | ++ (activity was measured to be between 0.7 μM and 3.0 μM) | < 55 | ++ (activity was measured to be between 0.1 μM and 4.0 μM) |  |
| CCOC(=O)N1CCC(N2CCC3(CC2)CN(C(=O)OCC(C)C)c2ccc(F)cc23)CC1 [compound 30] | > 85 | +++ (activity was measured to be less than or equal to 0.7 μM) | > 70 | +++ (activity was measured to be less than or equal to 0.1 μM) |  |
| CCOC(=O)N1CCC(N2CCC3(CC2)CN(C(C)=O)c2ccc(-c4ccccc4F)cc23)CC1 [compound 146] | > 85 | +++ (activity was measured to be less than or equal to 0.7 μM) | > 70 | +++ (activity was measured to be less than or equal to 0.1 μM) |  |
| CCOC(=O)N1C2CCC1CC(N1CCC3(CC1)CN(C(=O)OC1CCC1)c1ccc(F)cc13)C2 (stereo not drawn) [compound 409] | > 85 |  | > 70 |  | M1 Activity (M1 muscarinic receptor; compound nos. 1-454): +++ (activity was measured to be less than or equal to 0.7 μM); M4 Activity (M4 muscarinic receptor; compound nos. 1-454): +++ (activity was measured to be less than or equal to 0.1 μM) |
| CCOC(=O)N1CCC(N2CCC3(CC2)CN(C(=O)CC(C)(C)C)c2ccc(F)cc23)CC1 [compound 194] | > 85 | +++ (activity was measured to be less than or equal to 0.7 μM) | 55 to 70 | + (activity was measured to be greater than or equal to 4.0 μM) |  |
| CC(=O)NC1CC2(CCN(CC3CC4C=CC3C4)CC2)c2ccccc21 (stereo not drawn) [compound 305] |  | + (activity was measured to be greater than or equal to 3.0 μM) |  | + (activity was measured to be greater than or equal to 4.0 μM) | M1 Efficacy (M1 muscarinic receptor; [1]): + (efficacy was calculated to be 65% or less); M4 Efficacy (M4 muscarinic receptor; [1]): + (efficacy was calculated to be 55% or less) |
| CCOC(=O)N1CCC(CN2CCC3(CC2)COc2ccc(Cl)cc23)CC1 [compound 176] | > 85 | ++ (activity was measured to be between 0.7 μM and 3.0 μM) | 55 to 70 | ++ (activity was measured to be between 0.1 μM and 4.0 μM) |  |
| CCOC(=O)N1C2CCC1CC(N1CCC3(CC1)CN(C(=O)C1CC1)c1ccc(F)cc13)C2 (stereo not drawn) [compound 214] | < 65 | + (activity was measured to be greater than or equal to 3.0 μM) | < 55 | + (activity was measured to be greater than or equal to 4.0 μM) |  |
| CC#CCOC(=O)N1CCC(N2CCC3(CC2)CN(C(=O)N(C)C)c2ccc(F)cc23)CC1 [compound 353] | > 85 | +++ (activity was measured to be less than or equal to 0.7 μM) | 55 to 70 | + (activity was measured to be greater than or equal to 4.0 μM) |  |
| CN(C)C(=O)N1CC2(CCN(C3CCN(c4cncc(Cl)n4)CC3)CC2)c2ccccc21 [compound 469] |  |  |  |  | Emax (M1 muscarinic receptor; [4]): > 100%; M1 Activity (M1 muscarinic receptor; compounds 455-509): +++ (activity was measured to be less than or equal to 2.0 μM); Emax (M4 muscarinic receptor; [4]): 25 to 100%; M4 Activity (M4 muscarinic receptor; compounds 455-509): ++ (activity was measured to be between 2.0 μM and 5.0 μM) |
| CCOC(=O)N1CCC(N2CCC3(CC2)CN(C(=O)c2ccccc2C)c2ccc(F)cc23)CC1 [compound 53] | < 65 | ++ (activity was measured to be between 0.7 μM and 3.0 μM) | 55 to 70 | ++ (activity was measured to be between 0.1 μM and 4.0 μM) |  |
| CN(C)C(=O)N1CC2(CCN(C3CC4CCC(C3)N4c3cnccn3)CC2)c2ccccc21 (stereo not drawn) [compound 500] |  |  |  |  | Emax (M1 muscarinic receptor; [4]): > 100%; M1 Activity (M1 muscarinic receptor; compounds 455-509): +++ (activity was measured to be less than or equal to 2.0 μM); Emax (M4 muscarinic receptor; [4]): 25 to 100%; M4 Activity (M4 muscarinic receptor; compounds 455-509): ++ (activity was measured to be between 2.0 μM and 5.0 μM) |
| CC(=O)NC1CC2(CCN(C[C@H]3C[C@H]4CC[C@H]3C4)CC2)c2ccccc21 (stereo partly drawn) [compound 161] | > 85 | ++ (activity was measured to be between 0.7 μM and 3.0 μM) | > 70 | + (activity was measured to be greater than or equal to 4.0 μM) |  |
| CC(=O)N1CC2(CCN(C3CCN(C(=O)O[C@@H]4CCOC4)CC3)CC2)c2cc(F)ccc21 [compound 424] | < 65 |  | < 55 |  | M1 Activity (M1 muscarinic receptor; compound nos. 1-454): + (activity was measured to be greater than or equal to 3.0 μM); M4 Activity (M4 muscarinic receptor; compound nos. 1-454): + (activity was measured to be greater than or equal to 4.0 μM) |
| Cc1ncc(N2CCC(N3CCC4(CC3)CN(C(=O)N(C)C)c3ccc(F)cc34)CC2)nc1C [compound 472] |  |  |  |  | Emax (M1 muscarinic receptor; [4]): > 100%; M1 Activity (M1 muscarinic receptor; compounds 455-509): +++ (activity was measured to be less than or equal to 2.0 μM); Emax (M4 muscarinic receptor; [4]): 25 to 100%; M4 Activity (M4 muscarinic receptor; compounds 455-509): ++ (activity was measured to be between 2.0 μM and 5.0 μM) |
| COC(=O)N1C2CCC1CC(N1CCC3(CC1)CN(C1CCN(c4nc(C)ns4)CC1)c1ccccc13)C2 (stereo not drawn) [compound 490] |  |  |  |  | Emax (M1 muscarinic receptor; [4]): > 100%; M1 Activity (M1 muscarinic receptor; compounds 455-509): ++ (activity was measured to be between 2.0 μM and 5.0 μM); Emax (M4 muscarinic receptor; [4]): 25 to 100%; M4 Activity (M4 muscarinic receptor; compounds 455-509): ++ (activity was measured to be between 2.0 μM and 5.0 μM) |
| CCOC(=O)N1C2CCC1CC(N1CCC3(CC1)CN(C(=O)c1cc(C)oc1C)c1ccc(F)cc13)C2 (stereo not drawn) [compound 73] | 65 to 85 | +++ (activity was measured to be less than or equal to 0.7 μM) | 55 to 70 | ++ (activity was measured to be between 0.1 μM and 4.0 μM) |  |
| CCOC(=O)N(C)[C@H]1CC2(CCN(C[C@H]3C[C@H]4CC[C@H]3C4)CC2)c2ccccc21 [compound 347] | 65 to 85 | +++ (activity was measured to be less than or equal to 0.7 μM) | > 70 | ++ (activity was measured to be between 0.1 μM and 4.0 μM) |  |
| CCOC(=O)N1CCC(N2CCC3(CC2)CN(C(C)=O)c2ccc(OC)cc23)CC1 [compound 340] | < 65 | ++ (activity was measured to be between 0.7 μM and 3.0 μM) | < 55 | + (activity was measured to be greater than or equal to 4.0 μM) |  |
